Experimental data published in patent US20230323466A1, “DETERMINING CANCER RESPONSIVENESS TO TREATMENT” (Queensland University of Technology, priority 2020, published 2023).

Experiments:
[1] = test system: control and CDCA3-depleted cells; experiment: Mitotic entry and recovery from cisplatin-induced G2 checkpoint, flow cytometry of Ser-10 phosphorylated histone H3 (FIG. 2C); type: cell-based; details: after cisplatin-induced G2 checkpoint; both control and CDCA3-depleted cells
Description: FIG. 2. (A) Undamaged cells depleted of CDCA3 progress to mitosis slower than control cells or cells complemented with siRNA resistant CDCA3. (B) Cisplatin treated cells and depleted of CDCA3 are unable to recover from cell cycle arrest. (C) Cells treated with Cisplatin and then a PLK1 inhibitor are unable to recover from cell cycle arrest.
As this protein is reported to regulate cell proliferation (as confirmed by data in FIG. 7), the present inventors investigated its potential role in cell cycle progression from G2 into mitosis. To examine cell cycle progression, control cells, CDCA3-depleted cells or depleted cells ectopically expressing siRNA resistant CDCA3-FLAG were synchronized at the G1/S cell cycle boundary by a double thymidine block and released for seven hours (˜G2 phase). At this time cells were treated with or without cisplatin for 3.5 h and released into nocodazole containing media to capture cells in mitosis. Mitotic cells were determined by flow cytometry analysis of cells stained for Ser-10 phosphorylated histone H3. In undamaged cells, CDCA3 depletion slowed the progression of cells from G2 into mitosis (FIG. 2A). However, in cisplatin treated cells, CDCA3 depletion abolished mitotic progression with an inability to recover from G2 cell cycle arrest (FIG. 2B). […]

PLK1 = experiment: Mitotic index (H3S10ph) in cells expressing wildtype or T210D PLK1 (FIG. 4D); type: cell-based; details: dose dependent
NSCLC cells [2] = experiment: Cell death with cisplatin and/or BI 2536 in control versus CDCA3 depleted NSCLC cells (FIG. 9B); type: cell-based; details: monotherapy
CDCA3 and PLK1 = experiment: Immunoprecipitation of CDCA3 with PBD of PLK1 under CDK1 inhibition (FIG. 5E); type: cell-based; details: inhibition of CDK1 to block CDCA3 phosphorylation
Description: FIG. 5. (A) PLK1 schematic listing kinase domain and polo-box domain (PBD). (B) CDCA3 immunoprecipitates with the PBD of PLK1 irrespective of the phospho-binding mutant (H538 and K540 each mutated to alanine residues). (C) CDCA3 is phosphorylated by CDK1-cyclin B1 causing a large molecular weight shift measured by SDS-PAGE. (D) Mutating each of the five CDK1-cyclin B1 phosphorylation sites within CDCA3 enhances binding to PLK1. (E) Inhibition of CDK1 with RO3306 enhances immunoprecipitation of CDCA3 with the PBD domain of PLK1. (F) Unmodified recombinant CDCA3 binds to recombinant Aurora A and PLK1. CDCA3 pre-phosphorylated by CDK1-cyclin B1 binds markedly less to PLK1 than unmodified CDCA3. (G) Recombinant unmodified CDCA3 but not phosphorylated CDCA3 enhances the in vitro activation and phosphorylation of PLK1 by Aurora A.
The present inventors next examined the mechanism regulating the association between CDCA3 and PLK1. The structure of PLK1 consists of an N-terminal kinase domain and a […] polo-box domain (PBD; FIG. 5A). Classically, the PBD binds phosphorylated substrates requiring the residues His538 and Lys540. Using immunoprecipitation analysis of lysates from cells ectopically expressing CDCA3 and the PBD of PLK1, it was identified that CDCA3 associates with the PLK1 PBD independent of residues His538 and Lys540 (FIG. 5B). […]

NSCLC cells [3] = experiment: Cisplatin IC50 in CDCA3-depleted versus control NSCLC cells (FIG. 8); type: cell-based
Description: FIG. 8. CDCA3-depletion reduces cisplatin IC50 values ˜2-4 fold versus control NSCLC cells but not non-tumorigenic lung epithelial HBEC cells, indicating increased sensitivity to cisplatin in NSCLC in vitro.
To investigate the diagnostic potential for CDCA3, the present inventors stratified the UT Lung SPORE cohort data based on CDCA3 expression (CDCA3low=below median, CDCA3high=above median). In this trial, patients undergoing curative resection were either observed only (OBS) or received adjunct chemotherapy (ACT).

H1975 cells = experiment: Cell viability assay (CellTitre-Glo 2.0), H1975; type: cell-based; details: Homo sapiens, NCI-H1975, 72 h
Experimental: (§1) All NSCLC cell lines were obtained from the American Type Culture Collection (ATCC) except for PC-9 cell line which was sourced from the European Collection of Cell Cultures (ECACC). Cells were grown in RPMI-1640-medium containing L-glutamine (Life Technologies) and 10% foetal bovine serum (FBS, Sigma Aldrich). […] All cell lines were cultured at 37° C. in a humidified 5% CO2 incubator and routinely tested for mycoplasma contamination. Transfection of CDCA3-FLAG expression construct was performed using the FuGene HD transfection reagent (Promega Corporation).
(§2) Cells were seeded into a white-walled, glass-bottomed 384-well plate (Nunc) at a density of 1x10^3 cells per well. […] Cell viability was determined using CellTitre-Glo 2.0 (Promega Corporation) according to the manufacturer's instructions. Luminescence was scanned and analysed on the FLUOstar Omega Microplate Reader (BMG Labtech). Data was normalised to untreated controls and dose response curves and drug potency values generated using GraphPad Prism V9 software.
(§3) The present inventors evaluated TCGA datasets and correlated relative CDCA3 expression against available WikiPathways (2) of known measures of TKI resistance. […] Relative CDCA3 protein levels were correlated with the TKI potency values.

H1650 cells = experiment: Cell viability assay (CellTitre-Glo 2.0), H1650; type: cell-based; details: relative to other cell lines
Experimental: as §1, §2, §3

HCC827 cells = test system: HCC827 cells
Experimental: as §1, §2
(§4) The present inventors next sought to assess this possibility in in vitro models of acquired TKI resistance. […] Cells not exposed to TKI were also maintained in culture for the same period, hereafter referred to as the parental cells.

PC-9 cells = type: cell-based; details: for effect of ectopic CDCA3 expression on sensitivity: PC-9 parental cells; for enhancement of potency by ectopic CDCA3 expression: PC-9 resistant cells
Experimental: as §1, §2, §4

CDCA3 = CDCA3 levels after TKI treatment of EGFR mut NSCLC cell lines (FIG. 12); type: cell-based; details: H1975 cells (L858R, T790M)
Experimental: Given CDCA3 levels are responsive to EGFR activation, the present inventors examined CDCA3 levels following second and third generation TKI treatment of three EGFR^mut cell lines; HCC827 and H1650 (exon 19 deletion E746-A750) and H1975 cells (L858R, T790M-resistant to first and second generation TKI).
To collect whole cell lysates, cells were first washed in PBS then lysed in lysis buffer (50 mM HEPES (pH 7.5), 150 mM KCl, 5 mM EDTA, 0.05% IGEPAL CA-630 (v/v), 1× protease inhibitor cocktail (Roche), and 1× phosphatase inhibitor cocktail (Cell Signalling Technology). Total protein was determined by bicinchoninic acid (BCA) protein assay (Sigma Aldrich) following lysate sonication and centrifugation. Samples (total protein 20 20 μg) were denatured in 1× Laemmli Buffer supplemented with 8% β-mercaptoethanol for 5 minutes at 80° C.
The samples were separated on Bolt 4-12% Bis-Tris Plus pre-cast gels (Invitrogen) and transferred onto nitrocellulose membrane (GE Healthcare Life Sciences) using the semi-dry Novex XCell II Blot Module transfer system (Life Technologies). The nitrocellulose membranes were blocked using Odyssey blocking buffer (Li-Cor) before incubation overnight at 4° C. with primary antibody in a 1:1 solution of PBS-T and Odyssey Blocking Buffer. Following primary antibody incubation, membranes were washed with PBS-T and incubated with the appropriate secondary antibodies. […]

CC[C@@H]1C(=O)N(C)c2cnc(Nc3ccc(C(=O)NC4CCN(C)CC4)cc3OC)nc2N1C1CCCC1 [BI 2536]
mitotic entry [1]: blocked mitotic entry
mitotic entry (mitotic index) (PLK1): reduced
cell death (NSCLC cells [2]; CDCA3 depleted cells): ~13%
cell death (NSCLC cells [2]; control cells): ~30%

O=C1NC(=NCc2cccs2)S/C1=C\c1ccc2ncccc2c1 [R03306]
association between CDCA3 and PLK1 (CDCA3 and PLK1): increase

N.N.[Cl][Pt][Cl] [cisplatin]
reduction of cisplatin IC50 values by CDCA3-depletion (NSCLC cells [3]): 2-4 fold

C#Cc1cccc(Nc2ncnc3cc(OCCOC)c(OCCOC)cc23)c1 [erlotinib]
IC50 (H1975 cells): 66.6 µM
sensitivity (H1650 cells): insensitive
effect of ectopic CDCA3 expression on sensitivity (HCC827 cells): did not impact
effect of ectopic CDCA3 expression on sensitivity (PC-9 cells): did not impact
enhancement of potency by ectopic CDCA3 expression (PC-9 cells): ~57 fold

C=CC(=O)Nc1cc(Nc2nccc(-c3cn(C)c4ccccc34)n2)c(OC)cc1N(C)CCN(C)C [osimertinib]
effect of ectopic CDCA3 expression on sensitivity (HCC827 cells): did not impact
enhancement of potency by ectopic CDCA3 expression (HCC827 cells): ~121 fold
increase in IC50 values versus parental (HCC827 cells): ~385 fold
CDCA3 levels (CDCA3): reduced
effect of ectopic CDCA3 expression on sensitivity (PC-9 cells): did not impact
enhancement of potency by ectopic CDCA3 expression (PC-9 cells): 54 fold
increase in IC50 values versus parental (PC-9 cells; erlotinib resistant PC-9 versus parental PC-9): ~1,470 fold
